In patent publication US20120058972A1, “NOVEL USE” (priority 2009, published 2012):

Tests used:
[1] = tested on: Dextran Sulphate Sodium Induced Colitis Mouse Model; experiment: Dextran sulphate sodium induced colitis mouse model, IL-6 and MIP-2 in colon tissue homogenates (ELISA); type: in vivo, C57BL/6 mice; conditions: 3.5% DSS in drinking water 5 days
Description: Two groups (n=24 each) of adult C57BL/6 mice (Jackson Laboratories, Bar Harbour, Me., USA), conventionally raised (CR) and bacteria-depleted (BD) mice, were used to induce colitis. All animals were housed within a 12-h light/dark cycle and had access to mouse chow and water ad libitum.
At 6 weeks of age, conventionally colonised mice were housed under conventional conditions with untreated water (CR group) whilst mice in the BD group were fed an antibiotic cocktail in their drinking water for 2 weeks. Kanamycin (8 mg/ml), Gentamicin (0.7 mg/ml), Colistin (34,000 U/ml), Metronidazole (4.3 mg/ml) and Vanacomycin (0.9 mg/ml) comprised the antibiotic cocktail. Concentrations of antibiotics in the water were calculated based on the average water consumed by age group.
At 8 weeks of age, intestinal colitis was induced by feeding 3.5% DSS (Dextran Sulphate Sodium) (MP Biomedicals, Aurora, Ohio, USA) in drinking water for 5 days in all mice of both groups (CR and BD). At 10 weeks of age, half the mice of each group started receiving Bimuno (5 g/L) for 7 days. At the end of week 10, the animals were euthanized and their colons were harvested for analysis.
Murine IL-6 and MIP-2 cytokines were analysed by ELISA (Quantikine, R&D Systems, Minn., USA) on colon tissue homogenates according to manufacturer's instructions. Briefly, the proximal colons for each group were collected and homogenised with PBS homogenising buffer containing 1% Triton X-100 supplemented with a cocktail of protease inhibitors. The homogenised solutions were centrifuged at 12,000 rpm for 10 min, and the supernatants were separated into aliquots and stored at −70° C.

[2] = tested on: NF-κB p65 protein; experiment: Effect of B-GOS on NF-κB translocation (immunofluorescence); type: cell-based, human; conditions: NCM-460 cells, TNF-α 10 ng/mL alone, 30 minutes
Method: Effect of B-GOS on NF-KB translocation. NCM-460 cells were grown to 70% confluency on cover slips and treated in duplicate for 10 or 30 minutes as follows: (i) negative control, (ii) TNF-α (10 ng/mL) positive control, and (iii) TNF-α (10 ng/mL) with B-GOS (5 g/L). The medium was removed and the cells were fixed in 4% paraformaldehyde. After permeabilization with methanol and blocking with 10% goat serum in 0.25% BSA in TBS, the cells were probed with rabbit anti-human NF-κB p65 polyclonal antibody. After washing, the cells were incubated with CyTM 3-conjugated goat anti-rabbit antibody. The cover slips were then washed and mounted on a glass slide to be visualized under the microscope (Nikon Eclipse TE2000-S).

[3] = tested on: NCM-460 cells; experiment: Effect of B-GOS on induction of cytokine transcription (qRT-PCR of IL-8, MIP-3α, MCP-1 mRNA); type: cell-based, human; conditions: TNF-α 10 ng/mL, 18 hours, p<0.001
Method: Effect of B-GOS on induction of cytokine transcription. NCM-460 cells were grown to confluence in 6-well plates from an initial concentration of 5×10^5 cells/mL. When the cells reached 70% confluence, they were treated as follows in quadruplicate: (i) negative control, (ii) TNF-α or IL1β or flagellin (10 ng/mL) positive control, and (iii) TNF-α or IL1β or flagellin (10 ng/mL) with B-GOS (5 g/L). After 18 hours, total cellular RNA was isolated by Trizol-chloroform extraction. Using the SuperScript III Platinum SYBR Green One-Step qRT-PCR kit, the mRNA expression of IL-8, MIP-3α and MCP-1 was measured on a MJ Opticon 2 and standardized to mRNA expression of GAPDH.
Statistical analysis. Induction of cytokines was standardized to the positive control with error bars representing standard error (SE). Comparisons between groups were performed using a two-tailed Student's t test. Gene expression data obtained by qRT-PCR was expressed as the mean with SE. Comparisons between groups were performed using a Student's two-tailed t test after logarithmic transformation. A p value <0.05 was considered statistically significant and indicated by an asterisk (*), a p value <0.01 was indicated by two asterisks (**) and a p value <0.001 was indicated by three asterisks (***).

[4] = tested on: T84 cells; experiment: Effect of B-GOS on TNF-α induced IL-8 secretion in T84 cells (ELISA); type: cell-based, human; conditions: TNF-α 10 ng/mL, vs untreated, p<0.001
Method: (§1) Intestinal epithelial cells were grown to confluence in 24-well plates from an initial concentration of 5×10^5 cells/mL. When the cells reached 70% confluence, they were treated in quadruplicate as follows: (i) negative control, (ii) TNF-α (10 ng/mL) positive control, (iii) B-GOS (5 g/L) and (iv) TNF-α (10 ng/mL) with B-GOS (5 g/L). A concentration of 5 g/L of oligosaccharides was used since this is the physiological concentration of oligosaccharides found in human milk. After 16 hours, supernatants were collected and stored at −20° C. for IL-8 and MIP-3α secretion to be determined later by ELISA. In following experiments, TNF-α was replaced by IL1β or flagellin.
Quantitation of IL-8. The IL-8 concentration was measured by ELISA as described previously (Claud E C, Savidge T, Walker W A 2003 Modulation of human intestinal epithelial cell IL-8 secretion by human milk factors. Pediatr Res 53:419-425). […] The reaction was stopped with 100 μL 2N H2SO4 and the absorbance was read at 490 nm. The concentration of IL-8 in the samples was calculated from the IL-8 standard curve. […]
Statistical analysis. […] Gene expression data obtained by qRT-PCR was expressed as the mean with SE. […]

[5] = tested on: NCM-460 cells; experiment: Effect of B-GOS on IL-8 and MIP-3α secretion in NCM-460 cells (ELISA); type: cell-based, human; conditions: TNF-α 10 ng/mL, vs untreated, p<0.001
Method: as §1
Quantitation of IL-8. The IL-8 concentration was measured by ELISA as described previously (Claud E C, Savidge T, Walker W A 2003 Modulation of human intestinal epithelial cell IL-8 secretion by human milk factors. Pediatr Res 53:419-425). […] The reaction was stopped with 100 μL 2N H2SO4 and the absorbance was read at 490 nm. The concentration of IL-8 in the samples was calculated from the IL-8 standard curve.
Quantitation of MIP-3α. The amount of MIP-3α secretion was measured by ELISA similar to IL-8, except that the plate was coated overnight with 100 μL 2.0 μg/mL mouse anti-human MIP-3α monoclonal antibody. […] The concentration of MIP-3α in the samples was calculated from the MIP-3α standard curve. […]

| Substance | induction of IL-6 secretion by DSS ([1]; BD mice, p<0.0001) | induction of MIP-2 secretion by DSS ([1]; BD mice, p=0.0005) | induction of IL-6 secretion by DSS ([1]; conventional mice, p<0.0001) | induction of MIP-2 secretion by DSS ([1]; conventional mice, p<0.0001) | nuclear translocation of NF-κB p65 upon TNF-α stimulation [2] | increase of IL-8 mRNA expression upon TNF-α stimulation [3] | increase of MIP-3α mRNA expression upon TNF-α stimulation [3] | increase of IL-8 secretion upon TNF-α stimulation [4] | increase of IL-8 secretion upon TNF-α stimulation [5] | increase of MIP-3α secretion upon TNF-α stimulation [5] |
| --- | --- | --- | --- | --- | --- | --- | --- | --- | --- | --- |
| Dextran Sulphate Sodium [DSS] | 6.2 fold | 27.2 fold | 2.2 fold | 8.3 fold |  |  |  |  |  |  |
| TNF-α |  |  |  |  | clearly translocated into the nuclei | 12.2 fold | 99.4 fold | 4.9 fold | 58.8 fold | 25.0 fold |
